From patent US5238689A, “Use of ruthenium red as immunosuppressive agents” (Procept, Inc., priority 1992, dated 1993)
Values joined by “and” are separate entries in the source; they are usually repeats but may differ in a detail not shown here. Equal entries are not always repeated. Where two headings read alike, the source gives them in different places.

Key:
[1] = tested on: transfected Jurkat T cells; experiment: Calcium influx into activated human T cells (Fluo-3AM); type: cell-based
Method: To uncover the mode of action of Ruthenium Red, additional experiments were performed. Because it is known that this compound effects Ca^2+ levels in cells, we examined whether Ruthenium Red prevents the rise in intracellular Ca^2+ that accompanies T cell activation. The Ca^2+ -sensitive dye, Fluo-3AM (Molecular Probes, Inc., Eugene, Oreg.), can be used to detect intracellular Ca^2+. For these studies, transfected Jurkat T cells were incubated with Fluo-3AM (1 μM) for one hour at room temperature. The cells were then washed three times and incubated in 1 ml. volumes (5×10^5 cells) with various agents to trigger T cell activation and thus Ca^2+ uptake. Ruthenium Red was added at a concentration of 1 μg/ml (1.27 μM).

[2] = tested on: specific antibodies to cytochrome c; conditions: 4 mg/kg i.p. daily, 2 days before and 12 days after immunization; day 23
[3] = tested on: mitochondria of rat liver cells; conditions: cited from earlier work
[4] = tested on: smooth muscle plasma membrane of pig stomach cells; conditions: cited from earlier work
Lewis lung carcinoma = conditions: mice treated with the dye; cited from earlier work
[5] = tested on: human peripheral blood lymphocytes (PBL's); conditions: for 3H-thymidine uptake / % Inhibition: Ruthenium Red 0.2 μg/ml, 3 days
Method: For these studies, human peripheral blood lymphocytes (PBL's) were incubated in vitro with varying concentrations of IL-2 and in the presence or absence of Ruthenium Red (0.2 μg/ml). After 3 days of culture, ^3 H-thymidine was added for 16 hr, cells were harvested, and the filters counted.

T cells = conditions: mean of 4 determinations
Method: Alloreactivity was measured by stimulating T cells from one donor with inactivated lymphocytes from a second donor. The inhibition values represent the means of 4 separate determinations.

[6] = tested on: T cells activated with HSV-1; conditions: 1 μg/ml
Method: In another study, T cells were activated with HSV-1 as described before and the Ruthenium Red (1 μg/ml) was added either at the start of culture (time 0) or after various delays.

[7] = tested on: specific antibody to cytochrome c
Method: The remaining mice in this study continued on their assigned treatment and were bled on day 23, as in the original pilot study, and sera were tested for specific antibodies in the ELISA. The data has been expressed as the mean of the endpoint dilution.

[8] = tested on: T cell responses to cytochrome c
Method: For these studies, B10.A mice were treated with Ruthenium RED as before and immunized with cytochrome c. On day 7 after challenge with antigen, draining lymph nodes were removed and single cell suspensions of lymphocytes were prepared. The lymphocytes were counted to estimate overall yields and were cultured in vitro with antigen (100 μg/ml) for three days prior to addition of tritiated thymidine to quantitate proliferation.

[9] = tested on: human T cell (PBL) proliferation; conditions: for % Inhibition: mean of 5 separate experiments

CNc1ccc2oc(C[C@H]3O[C@@]4(CC[C@H]3C)O[C@H]([C@H](C)C(=O)c3ccc[nH]3)[C@H](C)C[C@H]4C)nc2c1C(=O)O [Calcium ionophore, reference compound]
% Fluorescent cells ([1]; Calcium ionophore, without Ruthenium Red): 84.6%

N.N.N.N.N.N.N.N.N.N.N.N.N.N.[Cl-].[Cl-].[Cl-].[Cl-].[Cl-].[Cl-].[O-2].[O-2].[Ru+3].[Ru+3].[Ru+4] [Ruthenium Red]
reduction in antibody levels compared to control mice who received water [2]: 70% | effect on calcium ion transport [3]: affect calcium ion transport | Ca2+ efflux [4]: inhibit Ca^2+ efflux | effect on calcium ion transport ([4]; smooth muscle plasma membrane of pig stomach cells): affect calcium ion transport | anti-tumor properties, growth of Lewis lung carcinoma (Lewis lung carcinoma): growth inhibition of Lewis lung carcinoma in mice | 3H-thymidine uptake ([5]; IL-2 0.01 U/ml): 1,154 cpm | % Inhibition ([5]; IL-2 0.01 U/ml): 80% | 3H-thymidine uptake ([5]; IL-2 1 U/ml): 2,805 cpm | % Inhibition ([5]; IL-2 1 U/ml): 92% | 3H-thymidine uptake ([5]; IL-2 100 U/ml): 3,839 cpm | % Inhibition ([5]; IL-2 100 U/ml): 88% | proliferative response induced by IL-2 alone ([5]; PBL's): can be inhibited by this compound | % Inhibition of alloreactivity (T cells; 0.1 μg/ml (0.13 μM)): 69% | % Inhibition of alloreactivity (T cells; 0.2 μg/ml (0.25 μM)): 77% | % Inhibition of alloreactivity (T cells; 1.0 μg/ml (1.27 μM)): 85% | % Inhibition of alloreactivity (T cells; 2.5 μg/ml (3.18 μM)): 92% | latest time of addition after triggering with antigen still producing maximal inhibition [6]: ≤ 20 h | % Inhibition ([6]; time of addition 0 hr): 95% | % Inhibition ([6]; time of addition 1 hr): 97% | % Inhibition ([6]; time of addition 2 hr): 96% | % Inhibition ([6]; time of addition 4 hr): 92% | % Inhibition ([6]; time of addition 20 hr): 86% | % Inhibition ([6]; time of addition 33 hr): 58% | High Responders ([7]; antibody titer greater than 1:5,120, day 23): 2/6 | mice with titers greater than 1:5000 ([7]; day 23): 2 of the 6 | Mean Titer ([7]; mean of the endpoint dilution, day 23): 18,613 ± 13,020 | fraction of mice with a greatly reduced response to antigen ([7]; pilot study, proliferative data and antibody titers together): two thirds | Cell Yield (draining lymph nodes) ([8]; mouse 14, day 7): 0.26 × 10^6 | Cell Yield (draining lymph nodes) ([8]; mouse 16, day 7): 0.81 × 10^6 | Cell Yield (draining lymph nodes) ([8]; mouse 17, day 7): 16 × 10^6 | Specific proliferation ([8]; mouse 17, day 7, antigen 100 μg/ml, three days in vitro): 22,236 cpm | response to cytochrome c ([8]; third mouse): responded normally to cytochrome c | enlargement of lymph nodes following immunization ([8]; two of the three mice): no enlargement of lymph nodes following immunization | percentage of cells staining positively with the dye (intracellular Ca2+) ([1]; 1 μg/ml (1.27 μM)): major reduction in the percentage of cells staining positively with the dye | % Fluorescent cells ([1]; Activation (anti-CD2), Ruthenium Red 1 μg/ml (1.27 μM)): 17.2% | % Inhibition ([9]; 0.01 μg/ml (0.01 μM)): 17% | % Inhibition ([9]; 0.1 μg/ml (0.13 μM)): 31% | % Inhibition ([9]; 0.2 μg/ml (0.25 μM)): 60% | % Inhibition ([9]; 1.0 μg/ml (1.27 μM)): 89% | % Inhibition ([9]; 2.5 μg/ml (3.18 μM), 3.18 µM): ~90% and 96% | IC50 ([9]; read-out: IC50, inhibition of T cell proliferation, antigen-stimulated human PBL): ~200 nM
